Data: patent US5164295A, “Method for identifying amyloid protein-extracellular matrix protein affinity altering compounds” (The Upjohn Company, priority 1991, dated 1992)
One block for each molecule: values may come before it.

Tests used:
[1] = target: T1, HSPG binding to AAP695 /s (Homo sapiens, UniProt P05067); assay: Effect of test compounds on intact HSPG binding to immobilized AAP695 /s (ELISA); settings: for Activity: binding of intact HSPG, percentage ± SD of control: AAP695 /S, HSPG 2 μg/ml; for HSPG binding, % of control: AAP695
T1 construct: maintained the entire extracellular portion of the AAP; made in house; host or cells: insect cells (recombinant baculovirus)
Protocol: (§1) The assay comprised immobilizing AAP695 /s which was then exposed to free HSPG in the absence or presence of test compounds. Other aspects of the assay included exposing free HSPG to either immobilized AAP751 /s, or AAP770 /s, each in the absence or presence of test compounds. The assay was also performed with fibronectin as the immobilized protein in order to provide a positive control. In each case, a series of concentrations of HSPG and test compounds was used. Additionally, to determine whether or not the carbohydrate moiety of HSPG was involved in the binding to immobilized components, the carbohydrate moiety of HSPG was removed and assays were performed using the carbohydrate-free HSPG core protein. The test compounds used in experiments described here include heparin, dextran sulfate, chondroitin sulfate, dermatan sulfate, fibronectin, gelatin, bovine serum albumin (BSA), Ca^++ (CaCl2), Mg^++ (MgCl2), Mn^++ (MnCl2), Co^++ (Co(NO3)2), and Zn^++ (ZnCl2).
(§2) The assay used in studying the interaction between HSPG and protein ligands was an ELISA technique. Briefly, polystyrene micro-titer plates (Linbro, Flow Lab Inc.) were coated with a 100 μl solution, containing 1 μg/ml of the protein of interest (one of the three forms of AAP or fibronectin) in 20 mM NaHCO3 buffer pH 9.6. After incubation overnight at 4° C., the plates were rinsed with 0.15M NaCl, 20 mM Tris-Cl pH 7.5 (TBS). The plates were then incubated with 150 μl of 1% BSA in TBS for 2 hours at 37° C. to block the residual hydrophobic surface on the wells. After rinsing with TBS containing 0.05% (w/v) Tween 20 (TBS-Tween), 100 μl of various concentrations of HSPG in TBS-Tween were added. The plates were left overnight at 4° C., to permit maximum binding of HSPG to the coated proteins. The plates were then washed extensively and incubated for 2 hours at 37° C., with 100 μl of anti-HSPG diluted in TBS-Tween containing 0.1% BSA. The plates were washed again and incubated for another 2 hours with 100 μl of goat anti-rabbit-IgG conjugated with alkaline phosphatase (1:2000 dilution) in TBS-Tween containing BSA as above. Finally, after further washing, the bound antibodies were detected by adding an alkaline phosphatase substrate solution (100 μl) containing 2 mg/ml p-nitrophenyl phosphate, 0.1 mM ZnCl2, 1 mM MgCl2 and 100 mM glycine pH 10. The plates were left at room temperature for 15-120 minutes depending on the protein tested. The enzyme reaction was stopped by addition of 50 μl of 2M NaOH. The absorbance of the released p-nitrophenol was measured at 405 nm with a Titertek Multiscan/MCC 340 (Flow Lab. Ltd.). The amounts of HSPG bound were determined by the net OD405 after substracting the OD from the blank wells in which the HSPG incubation step was omitted. When the actual amounts of HSPG bound were to be calculated, a set of standards (0.05-50 ng/well) of HSPG in NaHCO3 buffer were pre-coated into wells on the same plates as the test proteins. The incubations proceeded as described above omitting the incubation of the HSPG solution with the HSPG standard coated wells. The actual amounts of HSPG bound to the test proteins were calculated from the OD405 standard curve produced by the HSPG standards using a Titersoft II E.J.A. software program (Flow Lab. Ltd.).
(§3) Heparin and dextran sulfate, respectively, were each used as test compounds to determine their effect on the HSPG binding to AAP forms and fibronectin. Various concentrations of heparin or dextran sulfate were added together with a constant amount of HSPG to wells coated with AAPs for fibronectin.

[2] = target: T2, HSPG binding to AAP751 /s (Homo sapiens, UniProt P05067); assay: Effect of test compounds on intact HSPG binding to immobilized AAP751 /s (ELISA); design: effect of increasing concentration on degree of HSPG binding to AAP751 /s: dose or concentration left out as unconfirmed; settings: for Activity: binding of intact HSPG, percentage ± SD of control: AAP751 /S, HSPG 2 μg/ml; for HSPG binding, % of control: AAP751
T2 construct: maintained the entire extracellular portion of the AAP; made in house; host or cells: insect cells (recombinant baculovirus)
Protocol: as §1, §2, §3

[3] = system: HSPG binding to fibronectin; assay: Effect of test compounds on intact HSPG binding to immobilized fibronectin (ELISA); design: species or system bovine; effect of increasing concentration on degree of HSPG binding to fibronectin: dose or concentration left out as unconfirmed; settings: for Activity: binding of intact HSPG, percentage ± SD of control: Fibronectin, HSPG 2 μg/ml; for HSPG binding, % of control: fibronectin; for inhibition of HSPG binding to immobilized fibronectin: test compound 50 μg/ml
Protocol: as §1
Fibronectin (from bovine plasma), heparin (grade II from porcine intestinal mucosa, average molecular weight=[…]), heparan sulfate, chondroitin sulfate, dextran sulfate, BSA, and alkaline phosphatase substrate were obtained from Sigma, St. Louis, Mo. Alkaline phosphatase conjugated goat anti-rabbit IgG was obtained from Boehringer-Manneheim, and heparitinase from ICN Biochemicals.
as §2, §3

[4] = system: HSPG binding to AAP proteins and fibronectin; assay: Effect of test compounds on HSPG binding, stated collectively for the immobilized proteins; settings: for effect on HSPG binding to any AAP protein tested (negated sentence: 'Neither ... had any effect'): even at 4000 μg/ml
Protocol: as §1, §2
In addition to test compounds described above, other compounds were tested to determine their effect upon HSPG-AAP binding.

[5] = test compound 500 μg/ml (Table II)

Activity: binding of intact HSPG, percentage ± SD of control ([1]; addition 4 mM): 107 ± 18.3%
Activity: binding of intact HSPG, percentage ± SD of control ([2]; addition 4 mM): 106 ± 19.7%
Activity: binding of intact HSPG, percentage ± SD of control ([3]; addition 4 mM): 101.5 ± 9.2%
effect of divalent metal ion on HSPG binding ([4]; 4 mM): unaffected
Molecule: [Cl][Mn][Cl] [MnCl2]

Activity: binding of intact HSPG, percentage ± SD of control ([1]; addition 4 mM): 92.5 ± 7.7%
Activity: binding of intact HSPG, percentage ± SD of control ([2]; addition 4 mM): 105.5 ± 3.5%
Activity: binding of intact HSPG, percentage ± SD of control ([3]; addition 4 mM): 101.5 ± 2.1%
effect of divalent metal ion on HSPG binding ([4]; 3 mM): unaffected
Molecule: [Ca+2].[Cl-].[Cl-] [CaCl2]

Activity: binding of intact HSPG, percentage ± SD of control ([1]; addition 0.1 mM): 31 ± 8.1%
inhibition of HSPG binding to AAP695 /s ([1]; test compound 0.1 mM): 70%
Activity: binding of intact HSPG, percentage ± SD of control ([2]; addition 0.1 mM): 85.5 ± 9%
Activity: binding of intact HSPG, percentage ± SD of control ([3]; addition 0.1 mM): 44 ± 14.6%
inhibition of HSPG binding to fibronectin ([3]; test compound 0.1 mM): 55%
Molecule: [Cl-].[Cl-].[Zn+2] [ZnCl2]

Molecule: dermatan sulfate
Activity: binding of intact HSPG, percentage ± SD of control ([1]; addition 4 mg/ml): 121 ± 14%
Activity: binding of intact HSPG, percentage ± SD of control ([2]; addition 4 mg/ml): 127 ± 30%
Activity: binding of intact HSPG, percentage ± SD of control ([3]; addition 4 mg/ml): 107 ± 20.6%
effect on HSPG binding to any AAP protein tested (negated sentence: 'Neither ... had any effect') [4]: had any effect

Activity: binding of intact HSPG, percentage ± SD of control ([1]; addition 4 mg/ml): 110 ± 15.3%
Activity: binding of intact HSPG, percentage ± SD of control ([2]; addition 4 mg/ml): 110 ± 24.2%
Activity: binding of intact HSPG, percentage ± SD of control ([3]; addition 4 mg/ml): 107 ± 10.8%
effect on HSPG binding to any AAP protein tested (negated sentence: 'Neither ... had any effect') [4]: had any effect
Molecule: chondroitin sulfate

Activity: binding of intact HSPG, percentage ± SD of control ([1]; addition 10 mM): 102.5 ± 6.4%
Activity: binding of intact HSPG, percentage ± SD of control ([2]; addition 10 mM): 102.5 ± 7.8%
Activity: binding of intact HSPG, percentage ± SD of control ([3]; addition 10 mM): 105 ± 9.9%
effect of divalent metal ion on HSPG binding ([4]; 10 mM): unaffected
Molecule: [Cl-].[Cl-].[Mg+2] [MgCl2]

mode of inhibition of HSPG binding to AAP695 /s [1]: probably competitive
Activity: binding of intact HSPG, percentage ± SD of control ([1]; addition 500 μg/ml): 8.5 ± 2.4%
HSPG binding, % of control ([1]; test compound 31.2 μg/ml): 14%
HSPG binding, % of control ([1]; test compound 62.5 μg/ml): 11%
HSPG binding, % of control ([1]; test compound 125 μg/ml): 9%
HSPG binding, % of control ([1]; test compound 250 μg/ml): 11%
HSPG binding, % of control [1, 5]: 11%
inhibition of HSPG binding to AAP695 /s ([1]; test compound 32 μg/ml): about 85%
mode of inhibition of HSPG binding to AAP751 /s [2]: noncompetitive
Activity: binding of intact HSPG, percentage ± SD of control ([2]; addition 500 μg/ml): 63 ± 8.6%
HSPG binding, % of control ([2]; test compound 31.2 μg/ml): 74%
HSPG binding, % of control ([2]; test compound 62.5 μg/ml): 71%
HSPG binding, % of control ([2]; test compound 125 μg/ml): 67%
HSPG binding, % of control ([2]; test compound 250 μg/ml): 68%
HSPG binding, % of control [2, 5]: 63%
effect of increasing concentration on degree of HSPG binding to AAP751 /s ([2]; concentration increased): did not further decrease
inhibition of HSPG binding to AAP751 /s ([2]; test compound 32 μg/ml): 30%
mode of inhibition of HSPG binding to fibronectin [3]: noncompetitive
Activity: binding of intact HSPG, percentage ± SD of control ([3]; addition 500 μg/ml): 71 ± 10.8%
effect of increasing concentration on degree of HSPG binding to fibronectin ([3]; concentration increased): did not further decrease
HSPG binding, % of control ([3]; test compound 31.2 μg/ml): 67%
HSPG binding, % of control ([3]; test compound 62.5 μg/ml): 70%
HSPG binding, % of control ([3]; test compound 125 μg/ml): 68%
HSPG binding, % of control ([3]; test compound 250 μg/ml): 63%
HSPG binding, % of control [3, 5]: 60%
inhibition of HSPG binding to fibronectin ([3]; test compound 32 μg/ml): 30%
Molecule: dextran sulfate

Activity: binding of intact HSPG, percentage ± SD of control ([1]; addition 50 μg/ml): 76.3 ± 9.5%
Activity: binding of intact HSPG, percentage ± SD of control ([2]; addition 50 μg/ml): 103.7 ± 14.5%
Activity: binding of intact HSPG, percentage ± SD of control ([3]; addition 50 μg/ml): 33.4 ± 18.4%
inhibition of HSPG binding to immobilized fibronectin [3]: 65%
interference with HSPG binding to the AAPs ([4]; test compound 50 μg/ml in solution, the AAPs): only moderately interferes
Molecule: Fibronectin: Fibronectin from bovine plasma (Sigma), added in solution as test compound

Molecule: O=[N+]([O-])[O-].O=[N+]([O-])[O-].[Co+2] [Co (NO3), Co(NO3)2]
Activity: binding of intact HSPG, percentage ± SD of control ([1]; addition 0.1 mM): 97.3 ± 2.5%
Activity: binding of intact HSPG, percentage ± SD of control ([2]; addition 0.1 mM): 91 ± 8.5%
Activity: binding of intact HSPG, percentage ± SD of control ([3]; addition 0.1 mM): 100 ± 14%
effect of divalent metal ion on HSPG binding ([4]; 0.1 mM): unaffected

Activity: binding of intact HSPG, percentage ± SD of control ([1]; addition 50 μg/ml): 50.5 ± 18.4%
inhibition of HSPG binding to AAP695 /s ([1]; test compound 50 μg/ml): 50%
Activity: binding of intact HSPG, percentage ± SD of control ([2]; addition 50 μg/ml): 60.2 ± 8.3%
inhibition of HSPG binding to AAP751 /s ([2]; test compound 50 μg/ml): 40%
Activity: binding of intact HSPG, percentage ± SD of control ([3]; addition 50 μg/ml): 28.5 ± 16.5%
inhibition of HSPG binding to immobilized fibronectin [3]: 70%
Molecule: Gelatin
